ChEMBL document CHEMBL1125953, “Probing the inhibition of leukotriene A4 hydrolase based on its aminopeptidase activity” (Bioorg Med Chem Lett, 1991)

Experiments:
[1] = biological target: T1, Leukotriene A-4 hydrolase (Homo sapiens, UniProt P09960); assay: Inhibitory activity against Leukotriene A4 hydrolase from human leukocytes
T1 sequence (P09960 whole entry): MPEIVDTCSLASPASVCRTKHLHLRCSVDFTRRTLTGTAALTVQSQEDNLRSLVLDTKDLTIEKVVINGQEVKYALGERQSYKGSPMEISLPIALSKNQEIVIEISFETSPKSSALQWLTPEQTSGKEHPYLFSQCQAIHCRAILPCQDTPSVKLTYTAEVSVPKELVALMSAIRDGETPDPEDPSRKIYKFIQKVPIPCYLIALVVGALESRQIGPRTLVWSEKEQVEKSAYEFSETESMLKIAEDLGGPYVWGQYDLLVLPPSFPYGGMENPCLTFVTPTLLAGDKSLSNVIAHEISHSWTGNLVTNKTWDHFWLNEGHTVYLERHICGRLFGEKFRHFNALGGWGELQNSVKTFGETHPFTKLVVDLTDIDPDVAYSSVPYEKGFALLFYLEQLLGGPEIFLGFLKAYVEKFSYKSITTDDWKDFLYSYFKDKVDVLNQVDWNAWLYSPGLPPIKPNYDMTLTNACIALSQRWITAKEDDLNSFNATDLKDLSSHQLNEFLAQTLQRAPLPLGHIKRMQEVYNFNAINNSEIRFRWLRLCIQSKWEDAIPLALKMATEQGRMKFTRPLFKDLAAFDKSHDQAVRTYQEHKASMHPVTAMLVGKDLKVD

[2] = Ratio of catalytic constant to that of Michaelis-Menten constant for LTA4 hydrolase-catalyzed hydrolysis was determined
[3] = biological target: T1, Leukotriene A-4 hydrolase; assay: Compound was tested for inhibitory activity against Leukotriene A4 hydrolase from human leukocytes; NI means no inhibition at 1 mM
[4] = substrate: NCCCC[C@@H](N)C(=O)Nc1ccc([N+](=O)[O-])cc1; assay: (§1) Maximum velocity of amino acid amides was tested as substrates for LTA4 hydrolase-catalyzed hydrolysis
[5] = substrate: C[C@@H](N)C(=O)Nc1ccc([N+](=O)[O-])cc1; assay: as §1
[6] = substrate: NC(N)=NCCC[C@@H](N)C(=O)Nc1ccc([N+](=O)[O-])cc1; assay: (§2) Maximum velocity of amino acid amides was tested as substrates for Leukotriene A4 hydrolase catalyzed hydrolysis
[7] = substrate: CCCCC/C=C\C/C=C\C=C\C=C\[C@@H]1O[C@H]1CCCC(=O)O; assay: as §2
[8] = substrate: O=C(Nc1ccc([N+](=O)[O-])cc1)[C@@H]1CCCN1; assay: as §2
[9] = substrate: CC(C)C[C@H](N)C(=O)Nc1ccc([N+](=O)[O-])cc1; assay: as §2
[10] = substrate: C[C@H](N)C(=O)Nc1ccc([N+](=O)[O-])cc1; assay: Maximum velocity of amino acid amides was tested as substrates for Leukotriene A4 hydrolase
[11] = substrate: NC(N)=NCCC[C@@H](N)C(=O)Nc1ccc([N+](=O)[O-])cc1; assay: (§3) Michaelis-Menten constant of compound for Leukotriene A4 hydrolase catalyzed hydrolysis was determined
[12] = substrate: NCCCC[C@@H](N)C(=O)Nc1ccc([N+](=O)[O-])cc1; assay: as §3
[13] = substrate: CCCCC/C=C\C/C=C\C=C\C=C\[C@@H]1O[C@H]1CCCC(=O)O; assay: as §3
[14] = substrate: O=C(Nc1ccc([N+](=O)[O-])cc1)[C@@H]1CCCN1; assay: as §3
[15] = substrate: C[C@@H](N)C(=O)Nc1ccc([N+](=O)[O-])cc1; assay: as §3
[16] = substrate: CC(C)C[C@H](N)C(=O)Nc1ccc([N+](=O)[O-])cc1; assay: as §3

N[C@H](Cc1ccccc1)[C@H](O)C(=O)NCCC(=O)O gave an IC50 [1] of ~100 µM.

NCCCC[C@@H](N)C(=O)Nc1ccc([N+](=O)[O-])cc1 showed a k cat/Km [2] of 350 M⁻¹ s⁻¹.

With CCOC(=O)CC(F)(F)C(=O)/C=C/c1ccccc1 the IC50 [1] was > 5000 µM.

Work on C[C@@H](N)C(=O)Nc1ccc([N+](=O)[O-])cc1 yielded a k cat/Km [2] of 1200 M⁻¹ s⁻¹.

Molecule N[C@@H](Cc1ccccc1)[C@H](O)C(=O)NCCC(=O)O has an IC50 [1] of ~80 µM.

With COC(=O)[C@@H](O)[C@H](N)Cc1ccccc1 the IC50 [3] was “No inhibition”.

In the case of O=C(Nc1ccc([N+](=O)[O-])cc1)[C@@H]1CCCN1, the k cat/Km [2] is reported as 1500 M⁻¹ s⁻¹.

With COC(=O)C(S)[C@@H](N)Cc1ccccc1 (stereo partly specified) the IC50 [1] was ~250 µM.

In the case of N[C@H](Cc1ccccc1)[C@H](O)C(=O)O, the IC50 [3] is reported as “No inhibition”.

In the case of COC(=O)[C@H](O)[C@H](N)Cc1ccccc1, the IC50 [3] is reported as “No inhibition”.

In the case of CCCCC/C=C\C\C=C/C=C/C=C/[C@@H]1O[C@H]1CCCC(=O)O, the k cat/Km [2] is reported as 90000 M⁻¹ s⁻¹.

With NC(Cc1ccccc1)P(=O)(O)NCC(=O)O (stereo unspecified) the IC50 [1] was ~200 µM.

CC(C)CC(N)C(=O)Nc1ccc([N+](=O)[O-])cc1 (single isomer, unassigned) showed a k cat/Km [2] of 500 M⁻¹ s⁻¹.

For COC(=O)[C@H](O)[C@@H](N)Cc1ccccc1, the IC50 [1] was > 500 µM.

C[C@H](CS)C(=O)N1CCC[C@H]1C(=O)O [CAPTOPRIL] showed an IC50 [1] of 0.07 µM.

In the case of N[C@@H](Cc1ccccc1)[C@H](O)C(=O)O, the IC50 [1] is reported as > 1000 µM.

Molecule NC(N)=NCCC[C@@H](N)C(=O)Nc1ccc([N+](=O)[O-])cc1 has a k cat/Km [2] of 750 M⁻¹ s⁻¹.

In the case of COC(=O)C(S)[C@H](N)Cc1ccccc1 (stereo partly specified), the IC50 [1] is reported as > 250 µM.

B1: Leukotriene A-4 hydrolase (Homo sapiens), P09960 (protein)
chain: MPEIVDTCSLASPASVCRTKHLHLRCSVDFTRRTLTGTAALTVQSQEDNLRSLVLDTKDLTIEKVVINGQEVKYALGERQSYKGSPMEISLPIALSKNQEIVIEISFETSPKSSALQWLTPEQTSGKEHPYLFSQCQAIHCRAILPCQDTPSVKLTYTAEVSVPKELVALMSAIRDGETPDPEDPSRKIYKFIQKVPIPCYLIALVVGALESRQIGPRTLVWSEKEQVEKSAYEFSETESMLKIAEDLGGPYVWGQYDLLVLPPSFPYGGMENPCLTFVTPTLLAGDKSLSNVIAHEISHSWTGNLVTNKTWDHFWLNEGHTVYLERHICGRLFGEKFRHFNALGGWGELQNSVKTFGETHPFTKLVVDLTDIDPDVAYSSVPYEKGFALLFYLEQLLGGPEIFLGFLKAYVEKFSYKSITTDDWKDFLYSYFKDKVDVLNQVDWNAWLYSPGLPPIKPNYDMTLTNACIALSQRWITAKEDDLNSFNATDLKDLSSHQLNEFLAQTLQRAPLPLGHIKRMQEVYNFNAINNSEIRFRWLRLCIQSKWEDAIPLALKMATEQGRMKFTRPLFKDLAAFDKSHDQAVRTYQEHKASMHPVTAMLVGKDLKVD
B1 showed a Vmax (nM min-1 mg-1) [4] of 30, a Vmax (nM min-1 mg-1) [5] of 530 and a Vmax (nM min-1 mg-1) [6] of 140. It also gave a Vmax (nM min-1 mg-1) [7] of 572, a Vmax (nM min-1 mg-1) [8] of 130 and a Vmax (nM min-1 mg-1) [9] of 130. The Vmax (nM min-1 mg-1) [10] was 0, the Km [11] was 200 µM and the Km [12] was 100 µM. The Km [13] was 7.6 µM, the Km [14] was 100 µM and the Km [15] was 500 µM. The Km [16] was 300 µM.
